Source: patent US9758445B2, “Preparation of surfactants via cross-metathesis” (MATERIA, INC., priority 2013, dated 2017)
Read-outs that look alike come from different tables or passages of the source.

Assays:
[1] = Krafft Point from the abrupt increase in electrical conductivity as a function of temperature; format: physicochemical
Experimental: Krafft Point or Krafft Temperature is defined as the […]. Surfactants form micelles above their Krafft Point and the solubility in water increases abruptly. The Krafft point was determined by the abrupt increase in the electrical conductivity of as a function of temperature. The intersection of the two solubility lines is the Krafft Point.

[2] = Critical Micelle Concentration (CMC) from the electrical conductivity-concentration curve at constant temperature; format: physicochemical
Experimental: The Critical Micelle Concentration (CMC) is defined as the concentration of surfactants above which micelles form and all additional surfactants added to the system go to micelles. The CMC is measured by the electrical conductivity-concentration curve at constant temperature.

[3] = Surface tension above CMC; format: physicochemical
[4] = purity 91%; N. M. van Os et al. Tenside Surf. Det. 1992, 29 175; cited from earlier work
[5] = at 20° C.; purity 91%; N. M. van Os et al. Tenside Surf. Det. 1992, 29 175; cited from earlier work
[6] = Surfactant Foaming Test in tap water; format: physicochemical; parameters: key: A: No Foam Generated; B: Small Volume of Foam Generated; C: Large Volume of Foam Generated; conditions: surfactant 0.023 wt %, tap water 7.0 mL, 23° C., shaken vigorously, foaming recorded after standing 3 minutes
Experimental: To a 20 mL scintillation vial was added surfactant (0.023 wt %) and tap water (7.0 mL, 23° C.). The vial was sealed and the solution was shaken vigorously. The solution was allowed to stand for 3 minutes and foaming was recorded.

Surfactant Foaming Test Results [6]	Structure (SMILES)	also measured
–	CCCCCCCCC(C)c1ccc(S(=O)(=O)O)cc1 (centres unmarked) [2-PhC10 LAS, sodium 4-(decan-2-yl)benzenesulfonate]	Krafft Point [1]: 22.5 °C; CMC (mmol/L) at Temp (° C.) ([2]; at 22.0° C.): 4.4 at 22.0 °C mmol/L; Surface Tension [3]: 43 dynes/cm; Krafft Point [4]: 22.0 °C (NR^2); CMC (mmol/L) at Temp (° C.) [5]: 4.5 at 20 °C mmol/L
–	CCCCCCCCCC(C)c1ccc(S(=O)(=O)O)cc1 (centres unmarked) [2-PhC11 LAS, sodium 4-(undecan-2-yl)benzenesulfonate]	Krafft Point [1]: 23.0 °C; CMC (mmol/L) at Temp (° C.) ([2]; at 22.0° C.): 1.9 at 22.0 °C mmol/L; Surface Tension [3]: 43 dynes/cm
–	CCCCCCCCCCC(C)c1ccc(S(=O)(=O)O)cc1 (centres unmarked) [2-PhC12 LAS, sodium 4-(dodecan-2-yl)benzenesulfonate]	Krafft Point [1]: 22.5 °C; CMC (mmol/L) at Temp (° C.) ([2]; at 22.5° C.): 2.1 at 22.5 °C mmol/L; Surface Tension [3]: 41 dynes/cm
–	CCCCCCCCCCCCCCC(C)c1ccc(S(=O)(=O)O)cc1 (centres unmarked) [2-PhC16 LAS, sodium 4-(hexadecan-2-yl)benzenesulfonate]	Krafft Point [1]: 45.0 °C; CMC (mmol/L) at Temp (° C.) ([2]; at 44.0° C.): 1.5 at 44.0 °C mmol/L; Surface Tension [3]: 44 dynes/cm
A	CCCCCCCCC(C)c1ccc(COCCOCCOCCOC)cc1 (centres unmarked) [R=CH2O(CH2CH2O)3CH3; n=7, 1-(4-(Decan-2-yl)phenyl)-2,5,8,11-tetraoxadodecane]	–
B	CCCCCCCCCCC(C)c1ccc(COCCOCCOCCOC)cc1 (centres unmarked) [R=CH2O(CH2CH2O)3CH3; n=9, 1-(4-(Dodecan-2-yl)phenyl)-2,5,8,11-tetraoxadodecane]	–
B	CCCCCCCCCCCCC(C)c1ccc(COCCOCCOCCOC)cc1 (centres unmarked) [R=CH2O(CH2CH2O)3CH3; n=11, 1-(4-(Tetradecan-2-yl)phenyl)-2,5,8,11-tetraoxadodecane]	–
C	CCCCCCCCC(C)c1ccc(COCCOCCOCCO)cc1 (centres unmarked) [R=CH2O(CH2CH2O)3H; n=7, 2-(2-(2-((4-(Decan-2-yl)benzyl)oxy)ethoxy)ethoxy)ethanol]	–
C	CCCCCCCCCC(C)c1ccc(COCCOCCOCCO)cc1 (centres unmarked) [R=CH2O(CH2CH2O)3H; n=8, 2-(2-(2-((4-(undecan-2-yl)benzyl)oxy)ethoxy)ethoxy)ethanol]	–
C	CCCCCCCCCCC(C)c1ccc(COCCOCCOCCO)cc1 (centres unmarked) [R=CH2O(CH2CH2O)3H; n=9, 2-(2-(2-((4-(dodecan-2-yl)benzyl)oxy)ethoxy)ethoxy)ethanol]	–
C	CCCCCCCCCCCC(C)c1ccc(COCCOCCOCCO)cc1 (centres unmarked) [R=CH2O(CH2CH2O)3H; n=10, 2-(2-(2-((4-(tridecan-2-yl)benzyl)oxy)ethoxy)ethoxy)ethanol]	–
C	CCCCCCCCCCCCC(C)c1ccc(COCCOCCOCCO)cc1 (centres unmarked) [R=CH2O(CH2CH2O)3H; n=11, 2-(2-(2-((4-(tetradecan-2-yl)benzyl)oxy)ethoxy)ethoxy)ethanol]	–
C	CCCCCCCCC(C)c1ccc(COCCOCCOCCOCCOC)cc1 (centres unmarked) [R=CH2O(CH2CH2O)4CH3; n=7, 1-(4-(Decan-2-yl)phenyl)-2,5,8,11,14-pentaoxapentadecane]	–
B	CCCCCCCCCC(C)c1ccc(COCCOCCOCCOCCOC)cc1 (centres unmarked) [R=CH2O(CH2CH2O)4CH3; n=8, 1-(4-(Undecan-2-yl)phenyl)-2,5,8,11,14-pentaoxapentadecane]	–
C	CCCCCCCCCCC(C)c1ccc(COCCOCCOCCOCCOC)cc1 (centres unmarked) [R=CH2O(CH2CH2O)4CH3; n=9, 1-(4-(Dodecan-2-yl)phenyl)-2,5,8,11,14-pentaoxapentadecane]	–
B	CCCCCCCCCCCC(C)c1ccc(COCCOCCOCCOCCOC)cc1 (centres unmarked) [R=CH2O(CH2CH2O)4CH3; n=10, 1-(4-(Tridecan-2-yl)phenyl)-2,5,8,11,14-pentaoxapentadecane]	–
B	CCCCCCCCCCCCC(C)c1ccc(COCCOCCOCCOCCOC)cc1 (centres unmarked) [R=CH2O(CH2CH2O)4CH3; n=11, 1-(4-(Tetradecan-2-yl)phenyl)-2,5,8,11,14-pentaoxapentadecane]	–
B	CCCCCCCCCCCCCCC(C)c1ccc(COCCOCCOCCOCCOC)cc1 (centres unmarked) [R=CH2O(CH2CH2O)4CH3; n=13, 1-(4-(Hexadecan-2-yl)phenyl)-2,5,8,11,14-pentaoxapentadecane]	–

Surfactant Foaming Test Results [6]	Structure (SMILES)	also measured
C	CCCCCCCCCCC(C)c1ccc(COCCOCCOCCOCCO)cc1 (centres unmarked) [R=CH2O(CH2CH2O)4H; n=9, 1-(4-(Dodecan-2-yl)phenyl)-2,5,8,11-tetraoxatridecan-13-ol]	–
C	CCCCCCCCCCCC(C)c1ccc(COCCOCCOCCOCCO)cc1 (centres unmarked) [R=CH2O(CH2CH2O)4H; n=10, 1-(4-(Tridecan-2-yl)phenyl)-2,5,8,11-tetraoxatridecan-13-ol]	–
C	CCCCCCCCCCCCC(C)c1ccc(COCCOCCOCCOCCO)cc1 (centres unmarked) [R=CH2O(CH2CH2O)4H; n=11, 1-(4-(Tetradecan-2-yl)phenyl)-2,5,8,11-tetraoxatridecan-13-ol]	–
C	CCCCCCCCCCCCCCC(C)c1ccc(COCCOCCOCCOCCO)cc1 (centres unmarked) [R=CH2O(CH2CH2O)4H; n=13, 1-(4-(Hexadecan-2-yl)phenyl)-2,5,8,11-tetraoxatridecan-13-ol]	–
B	CCCCCCCCC(C)c1ccc(COCCOC)cc1 (centres unmarked) [R=CH2OCH2CH2OCH3; n=7, 1-(Decan-2-yl)-4-((2-methoxyethoxy)methyl)benzene]	–
C	CCCCCCCCCCCC(C)c1ccc(COCCOC)cc1 (centres unmarked) [R=CH2OCH2CH2OCH3; n=10, 1-((2-Methoxyethoxy)methyl)-4-(tridecan-2-yl)benzene]	–
C	CCCCCCCCCCCCC(C)c1ccc(COCCOC)cc1 (centres unmarked) [R=CH2OCH2CH2OCH3; n=11, 1-((2-Methoxyethoxy)methyl)-4-(tetradecan-2-yl)benzene]	–
C	CCCCCCCCCCCCCCC(C)c1ccc(COCCOC)cc1 (centres unmarked) [R=CH2OCH2CH2OCH3; n=13, 1-(Hexadecan-2-yl)-4-((2-methoxyethoxy)methyl)benzene]	–
A	CCCCCCCCCC(C)c1ccc(COCCO)cc1 (centres unmarked) [R=CH2OCH2CH2OH; n=8, 2-((4-(Undecan-2-yl)benzyl)oxy)ethanol]	–
A	CCCCCCCCCCC(C)c1ccc(COCCO)cc1 (centres unmarked) [R=CH2OCH2CH2OH; n=9, 2-((4-(Dodecan-2-yl)benzyl)oxy)ethanol]	–
A	CCCCCCCCCCCC(C)c1ccc(COCCO)cc1 (centres unmarked) [R=CH2OCH2CH2OH; n=10, 2-((4-(Tridecan-2-yl)benzyl)oxy)ethanol]	–
A	CCCCCCCCCCCCC(C)c1ccc(COCCO)cc1 (centres unmarked) [R=CH2OCH2CH2OH; n=11, 2-((4-(Tetradecan-2-yl)benzyl)oxy)ethanol]	–
A	CCCCCCCCCCCCCCC(C)c1ccc(COCCO)cc1 (centres unmarked) [R=CH2OCH2CH2OH; n=13, 2-((4-(Hexadecan-2-yl)benzyl)oxy)ethanol]	–
A	CCCCCCCCCC(C)c1ccc(CO)cc1 (centres unmarked) [R=CH2OH; n=8, (4-(Undecan-2-yl)phenyl)methanol]	–
A	CCCCCCCCCCCCC(C)c1ccc(CO)cc1 (centres unmarked) [R=CH2OH; n=11, (4-(Tetradecan-2-yl)phenyl)methanol]	–
A	CCCCCCCCCCCCCCC(C)c1ccc(CO)cc1 (centres unmarked) [R=CH2OH; n=13, (4-(Hexadecan-2-yl)phenyl)methanol]	–
A	CCCCCCCCCCCCC(C)c1ccccc1 (centres unmarked) [R=H; n=11, 2-phenyltetradecane]	–
A	CCCCCCCCCCCCCCC(C)c1ccccc1 (centres unmarked) [R=H; n=13, 2-Phenylhexadecane]	–

Structure (SMILES)	Surfactant Foaming Test Results [6]	also measured
CCCCCCCCC(C)c1ccc(COCCOCCOCCOCCO)cc1 (centres unmarked) [R=CH2O(CH2CH2O)4H; n=7, 1-(4-(Decan-2-yl)phenyl)-2,5,8,11-tetraoxatridecan-13-ol]	C	–
CCCCCCCCCC(C)c1ccc(COCCOCCOCCOCCO)cc1 (centres unmarked) [R=CH2O(CH2CH2O)4H; n=8, 1-(4-(Undecan-2-yl)phenyl)-2,5,8,11-tetraoxatridecan-13-ol]	C	–
CCCCCCCCC(C)c1ccc(COCCO)cc1 (centres unmarked) [R=CH2OCH2CH2OH; n=7, 2-((4-(Decan-2-yl)benzyl)oxy)ethanol]	A	–
CCCCCCCCC(C)c1ccc(CO)cc1 (centres unmarked) [R=CH2OH; n=7, (4-(Decan-2-yl)phenyl)methanol]	A	–
CCCCCCCCCCC(C)c1ccc(CO)cc1 (centres unmarked) [R=CH2OH; n=9, (4-(Dodecan-2-yl)phenyl)methanol]	A	–
CCCCCCCCCCCC(C)c1ccc(CO)cc1 (centres unmarked) [R=CH2OH; n=10, (4-(Tridecan-2-yl)phenyl)methanol]	A	–
CCCCCCCCC(C)c1ccccc1 (centres unmarked) [R=H; n=7, 2-Phenyldecane]	A	–
CCCCCCCCCC(C)c1ccccc1 (centres unmarked) [R=H; n=8, 2-Phenylundecane]	A	–
CCCCCCCCCCC(C)c1ccccc1 (centres unmarked) [R=H; n=9, 2-Phenyldodecane]	A	–
CCCCCCCCCCCC(C)c1ccccc1 (centres unmarked) [R=H; n=10, 2-phenyltridecane]	A	–
